# Measurements published in patent US7598421B2, “Materials for the delivery of biologically-active material to cells” (UCL Biomedica PLC, priority 2002, dated 2009).
# Experiments:
# [1] = test system: integrins; settings: cited from earlier work; for affinity and specificity for integrins: literature
# [2] = test system: Human airway epithelial cells; experiment: Transfection efficiency, luciferase assay in HAE cells (Example 19); assay type: cell-based; parameters: scale not given here; settings: peptide:DNA 4:1, peptide [K]16 GACRRETAWACG
# Experimental: The activity of various compositions of the invention was measured in HAE cells using a Luciferase assay. RLU/mg refers to relative light units per mg of protein. The assay was carried out as follows:
# Lipid (10 mg/mL; […] [1 mg of lipid]) in chloroform was placed into a glass vial (sterile). The solvents were removed in vacuo and further traces of chloroform were removed on the high vacuum for 24 h. Cationic lipids were either formulated alone or with DOPE (mole ratio, 1:1).
# Deionized water (1 mL; MilliQ) was added to the film, to generate […] solution of lipid in water. The mixture was allowed to hydrate at 4° C. for 24 h. After warming to 40° C. the mixture was sonicated to generate a clear solution (5 in approx). The resulting liposome formulations were stable for up to 3 months.
# The components of the complex were mixed in the required weight ratio. The lipid was initially mixed with the peptide and the resulting mixture was added to the plasmid DNA.
# Human airway epithelial cells were seeded for 24 h at 37 °C in complete growth medium in a […]. Transfection complexes were left to aggregate for 30 min and diluted to a concentration of 1 μg of DNA per 0.5 ml in OptiMEM (Life technologies). The medium was removed from each well and replaced with 0.5 ml of transfection complex and was allow to incubate for a further 4 h. The transfection complexes were removed and then replace with growth medium and the cells were allowed to incubate for 48 h.
# The transfected cells were washed with phosphate-buffered saline (PBS). Reporter lysis buffer (100 μl) (Promega) was added to each well and cooled to 4 °C for 15 min. The cells were then assayed with a luciferase assay kit. The total light emission was measured for each well for 60 sec. The protein concentration of each sample was determined using a protein assay reagent and the activity expressed as relative light units per milligram of protein (RLU/mg).
# The values obtained for the lipids produced in Examples 17 and 18 above and for Lipofectin were measured at 1:1 and 2:1 ratios of lipid:DNA, and in each case the ratio of peptide:DNA was 4:1, the peptide used being [K]16 GACRRETAWACG. The ratios are expressed in terms of weight. The testing procedure used was that outlined in Human Gene Therapy 9, 575-585, 1998.
Molecule,affinity and specificity for integrins [1],"luciferase activity, relative light units per mg of protein ([2]; 1:1 lipid:DNA by weight) [RLU/mg]","luciferase activity, relative light units per mg of protein ([2]; 2:1 lipid:DNA by weight) [RLU/mg]",integrin specificity ([1]; table of peptides)
GACRGDMFGCA [Peptide 1],affinity for 5 and av integrins but is non-specific,–,–,–
"CCCCCCCC/C=C\CCCCCCCCOC(C[N+](C)(C)C)C(C[N+](C)(C)C)OCCCCCCCC/C=C\CCCCCCCC (centres unmarked) [Example 18, 1,4-Di(trimethylammonium)-2,3-dioleyloxy-butane; diiodide]",–,43.2,373.3,–
GACDCRGDCFCA [Peptide 5],high affinity for integrin v but is not v-specific,–,–,Peptide 5 (αv)
"CCCCCCCC/C=C\CCCCCCCC(=O)OC(C[N+](C)(C)C)C(C[N+](C)(C)C)OC(=O)CCCCCCC/C=C\CCCCCCCC.[I-].[I-] (centres unmarked) [Example 17, 1,4-Di(trimethylammonium)-2,3-dioleoyloxy-butane; diiodide]",–,1.2,2.0,–
GACRRETAWACG [Peptide 6],51-specific,–,–,–
